# In patent US10947222B2, “Indole derivatives useful as inhibitors of diacylglyceride O-acyltransferase 2” (Merck Sharp & Dohme Corp., priority 2016, dated 2021):
# Target: human DGAT2 (hDGAT2) (Homo sapiens (Human), UniProt Q96PD7)
# Assay: DGAT2 enzymatic activity assay (triolein formation, LC/MS/MS)
# Type: biochemical
# Settings: Sf-9 membrane prep expressing hDGAT2; 25 μM diolein, 10 μM oleoyl-CoA; triolein by LC/MS/MS
# Protocol: Sf-9 insect cells were maintained in Grace's insect cell culture medium with 10% heated-inactivated fetal bovine serum, 1% Pluronic F-68 and 0.14 μg/ml Kanamycine sulfate in Erlenmeyer flasks at 28° C. in a shaker incubator. After infection with untagged baculovirus expressing human DGAT2 (hDGAT2) at multiplicity of infection (MOI) 0.1 for 48 hours, cells were harvested. Cell pellets were suspended in buffer containing 10 mM Tris-HCl (pH 7.5), 1 mM EDTA (pH 8.0), 250 mM sucrose and Complete Protease Inhibitor Cocktail (Roche Diagnostics Corp., Indianapolis, Ill.), and sonicated on ice. Membrane fractions were isolated by ultracentrifugation (100,000×g pellet), resuspended in the same buffer, and frozen (−80° C.) for later use. The protein concentration was determined with the BCA Protein Assay kit (Pierce Biotechnology Inc., Rockford, Ill.). Expression of protein levels was analyzed by immunoblotting with goat polyclonal DGAT2 antibody C-15 and donkey anti-goat IgG HRP (Santa Cruz Biotechnology, Inc., Santa Cruz, Calif.) followed by detection with ECL reagent (GE Healthcare, Piscataway, N.J.).
# LC/MS/MS analyses were performed using Thermal Fisher's LX4-TSQ Vantage system. This system consists of an Agilent binary high-performance liquid chromatography (HPLC) pumps and a TSQ Vantage triple quadrupole MS/MS instrument. For each sample, 2 μL samples from the top organic layer of in-plate liquid-liquid extraction were injected onto a Thermo Betabasic C4 column (2.1 mm×20 mm, 5 μm particle size). The samples were then eluted using the following conditions; mobile phase: methanol/water with 0.1% ammonium format=92/8 (v/v), flow rate: 1 mL/min, temperature: 25 C. Data was acquired in positive mode using a heated electrospray ionization (HESI) interface. The operational parameters for the TSQ Vantage MS/MS instrument were a spray voltage of 3000 V, capillary temperature of 280° C., vaporizer temperature 400° C., shealth gas 60 arbitrary unit, Aux gas 40 arbitrary units, S-lens 113 and collision gas 0.16 Pascals. […] (SRM) chromatograms of triolein (Q1:902.9>Q3:602.3) and internal standard (Q1:902.9>Q3:602.3) were collected for 40 sec. The peak area was integrated by Xcalibur Quan software. The ratio between the triolein generated in the reaction and spiked in internal standard was used to generate percentage inhibition and IC50 values. Compound percentage inhibition was calculated by the following formula: Inhibition %/=1−[(compound response−low control)/(high control−low control)]×100%. Potent compounds were titrated and IC50 were calculated by 4 parameter sigmoidal curve fitting formula.
# DGAT2 activity was determined by measuring the amount of enzymatic product triolein (1,2,3-Tri(cis-9-octadecenoyl)glycerol) using the membrane prep mentioned above. The assay was carried out in deep well 384 plates in a final volume of 40 μL at rt. The assay mixture contained the following: assay buffer (100 mM Tris.Cl, pH 7.0, 20 mM MgCl2, 5% ethanol), 25 μM of diolein, 10 μM of oleoyl-CoA and 10 ng/μL of DGAT2 membrane.
# human DGAT2 (hDGAT2), sequence (Q96PD7 whole entry): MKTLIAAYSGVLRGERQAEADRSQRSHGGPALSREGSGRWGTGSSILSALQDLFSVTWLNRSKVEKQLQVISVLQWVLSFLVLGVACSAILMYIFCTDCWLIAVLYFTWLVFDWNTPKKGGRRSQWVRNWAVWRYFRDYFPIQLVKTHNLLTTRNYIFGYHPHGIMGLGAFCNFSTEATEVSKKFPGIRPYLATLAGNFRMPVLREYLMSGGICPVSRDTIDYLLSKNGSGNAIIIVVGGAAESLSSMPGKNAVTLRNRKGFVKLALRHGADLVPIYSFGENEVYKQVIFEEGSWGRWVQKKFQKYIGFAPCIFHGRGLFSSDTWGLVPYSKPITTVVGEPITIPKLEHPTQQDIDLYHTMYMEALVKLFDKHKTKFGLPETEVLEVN
row,IC50 [µM],Structure (SMILES)
1,0.802,"Cc1cc(C)nc(-c2cn(-c3ccc(F)cc3)c3cc(C(=O)NC4CCS(=O)(=O)C4)ccc23)c1 (racemic) [Example 20, 3-(4,6-dimethylpyridin-2-yl)-N-(1,1-dioxidotetrahydrothiophen-3-yl)-1-(4-fluorophenyl)-1H-indole-6-carboxamide (racemic)]"
2,0.571,"Cc1ccnc(-c2cn(-c3ccc(F)cc3)c3cc(C(=O)NC4(C)CCS(=O)(=O)C4)ccc23)c1 (racemic) [Example 24, 1-(4-fluorophenyl)-N-(3-methyl-1,1-dioxidotetrahydrothiophen-3-yl)-3-(4-methylpyridin-2-yl)-1H-indole-6-carboxamide (racemic)]"
3,0.696,"Cc1ccc(-c2cn(-c3ccc(F)cc3)c3cc(C(=O)NC4CCS(=O)(=O)C4)ccc23)cc1 (racemic) [Example 55, N-(1,1-dioxidotetrahydrothiophen-3-yl)-1-(4-fluorophenyl)-3-(4-methylphenyl)-1H-indole-6-carboxamide (racemic)]"
4,0.013,"Cc1cccc(-c2cn(-c3ccc(F)cc3)c3cc(C(=O)NC4CCS(=O)(=O)C4)ccc23)c1 (racemic) [Example 34, N-(1,1-dioxidotetrahydrothiophen-3-yl)-1-(4-fluorophenyl)-3-(3-methylphenyl)-1H-indole-6-carboxamide (racemic)]"
5,0.0033,"O=C(NC1CCS(=O)(=O)C1)c1ccc2c(-c3cccc(C4CC4)c3)cn(-c3ncc(F)cn3)c2c1 (single isomer, unassigned; enantiomer a) [Example 17-A, 3-(3-cyclopropylphenyl)-N-(1,1-dioxidotetrahydrothiophen-3-yl)-1-(5-fluoropyrimidin-2-yl)-1H-indole-6-carboxamide (enantiomer A)]"
6,0.019,"O=C(NC1CCS(=O)(=O)C1)c1ccc2c(-c3cccc(Cl)c3Cl)cn(-c3ccc(F)cc3)c2c1 (racemic) [Example 44, 3-(2,3-dichlorophenyl)-N-(1,1-dioxidotetrahydrothiophen-3-yl)-1-(4-fluorophenyl)-1H-indole-6-carboxamide (racemic)]"
7,0.017,"Cc1c(-c2cccc(OC(F)F)c2)c2ccc(C(=O)NC3(C)CCS(=O)(=O)C3)cc2n1-c1ccc(F)cc1 (racemic) [Example 28, 3-(3-(difluoromethoxy)phenyl)-1-(4-fluorophenyl)-2-methyl-N-(3-methyl-1,1-dioxidotetrahydrothiophen-3-yl)-1H-indole-6-carboxamide (racemic)]"
8,0.101,"O=C(NC1CCS(=O)(=O)C1)c1ccc2c(-c3cccc(F)c3)cn(-c3ccc(F)cc3)c2c1 (racemic) [Example 35, N-(1,1-dioxidotetrahydrothiophen-3-yl)-3-(3-fluorophenyl)-1-(4-fluorophenyl)-1H-indole-6-carboxamide (racemic)]"
9,0.175,"COC(=O)c1cc(-c2cn(-c3ccc(F)cc3)c3cc(C(=O)NC4CCS(=O)(=O)C4)ccc23)cs1 (racemic) [Example 60, methyl 4-{6-[(1,1-dioxidotetrahydrothiophen-3-yl)carbamoyl]-1-(4-fluorophenyl)-1H-indol-3-yl}thiophene-2-carboxylate (racemic)]"
10,0.088,"O=C(NC1CCS(=O)(=O)C1)c1ccc2c(-c3cc(Cl)cc(Cl)c3)cn(-c3ccc(F)cc3)c2c1 (racemic) [Example 41, 3-(3,5-dichlorophenyl)-N-(1,1-dioxidotetrahydrothiophen-3-yl)-1-(4-fluorophenyl)-1H-indole-6-carboxamide (racemic)]"
11,0.321,"O=C(NC1CCS(=O)(=O)C1)c1ccc2c(-c3cncnc3)cn(-c3ccc(F)cc3)c2c1 (racemic) [Example 50, N-(1,1-dioxidotetrahydrothiophen-3-yl)-1-(4-fluorophenyl)-3-pyrimidin-5-yl-1H-indole-6-carboxamide (racemic)]"

# Further lines, the compound ahead of its results:
row,Structure (SMILES),IC50 [µM]
1,"CC1(NC(=O)c2ccc3c(-c4ccccc4Cl)cn(-c4ccc(F)cc4)c3c2)CCS(=O)(=O)C1 (racemic) [Example 1, 3-(2-chlorophenyl)-1-(4-fluorophenyl)-N-(3-methyl-1,1-dioxidotetrahydrothiophen-3-yl)-1H-indole-6-carboxamide]",0.0088
2,"CC1(NC(=O)c2ccc3c(-c4cccc(OC(F)F)c4)cn(-c4ccc(F)cn4)c3c2)CCS(=O)(=O)C1 (single isomer, unassigned; enantiomer b) [Example 10-B, 3-(3-(difluoromethoxy)phenyl)-1-(5-fluoropyridin-2-yl)-N-(3-methyl-1,1-dioxidotetrahydrothiophen-3-yl)-1H-indole-6-carboxamide (enantiomer B)]",0.001
3,"CC1(NC(=O)c2ccc3c(-c4ccccc4Cl)c(C#N)n(-c4ccc(F)cc4)c3c2)CCS(=O)(=O)C1 (single isomer, unassigned; enantiomer b) [Example 9-B, 3-(2-chlorophenyl)-2-cyano-1-(4-fluorophenyl)-N-(3-methyl-1,1-dioxidotetrahydrothiophen-3-yl)-1H-indole-6-carboxamide (Enantiomer B)]",0.235
4,"O=C(NC1CCS(=O)(=O)C1)c1ccc2c(-c3ccccc3Cl)cn(-c3ccc(F)cc3)c2c1 (single isomer, unassigned) [Example 2-A, 3-(2-chlorophenyl)-N-(1,1-dioxidotetrahydrothiophen-3-yl)-1-(4-fluorophenyl)-1H-indole-6-carboxamide]",0.171
5,"O=C(NC1CCS(=O)(=O)C1)c1ccc2c(-c3cccc(OC(F)F)c3)cn(-c3ccc(F)cn3)c2c1 (single isomer, unassigned; enantiomer a) [Example 13-A, 3-(3-(difluoromethoxy)phenyl)-N-(1,1-dioxidotetrahydrothiophen-3-yl)-1-(5-fluoropyridin-2-yl)-1H-indole-6-carboxamide (enantiomer A)]",0.0018
6,"CC1(NC(=O)c2ccc3c(-c4ccccc4Cl)cn(-c4ccc(F)cc4)c3c2)CCS(=O)(=O)C1 (single isomer, unassigned; enantiomer b) [Example 1-B, 3-(2-chlorophenyl)-1-(4-fluorophenyl)-N-(3-methyl-1,1-dioxidotetrahydrothiophen-3-yl)-1H-indole-6-carboxamide (Enantiomer B, slow)]",0.0066
7,"O=C(NC1CCS(=O)(=O)C1)c1ccc2c(-c3ccccc3Cl)cn(-c3ccc(F)cc3)c2c1 (single isomer, unassigned) [Example 2-B, 3-(2-chlorophenyl)-N-(1,1-dioxidotetrahydrothiophen-3-yl)-1-(4-fluorophenyl)-1H-indole-6-carboxamide]",0.03
8,"Cc1c(-c2ccccc2Cl)c2ccc(C(=O)NC3(C)CCS(=O)(=O)C3)cc2n1-c1ccc(F)cc1 (single isomer, unassigned; enantiomer b) [Example 8-B, 3-(2-chlorophenyl)-1-(4-fluorophenyl)-2-methyl-N-(3-methyl-1,1-dioxidotetrahydrothiophen-3-yl)-1H-indole-6-carboxamide (Enantiomer B)]",0.692
9,"CC1(NC(=O)c2ccc3c(-c4ccccc4Cl)cn(-c4ccc(F)cn4)c3c2)CCS(=O)(=O)C1 (single isomer, unassigned; enantiomer a) [Example 14-A, 3-(2-chlorophenyl)-1-(5-fluoropyridin-2-yl)-N-(3-methyl-1,1-dioxidotetrahydrothiophen-3-yl)-1H-indole-6-carboxamide (Enantiomer A, Fast)]",0.016
10,"CC(C)(CN1CCOCC1)NC(=O)c1ccc2c(-c3ccccc3Cl)cn(-c3ccc(F)cc3)c2c1 [Example 4, 3-(2-chlorophenyl)-1-(4-fluorophenyl)-N-(2-methyl-1-morpholinopropan-2-yl)-1H-indole-6-carboxamide]",0.629
11,"CC1(NC(=O)c2ccc3c(-c4ccccc4Cl)c(C#N)n(-c4ccc(F)cc4)c3c2)CCS(=O)(=O)C1 (single isomer, unassigned; enantiomer a) [Example 9-A, 3-(2-chlorophenyl)-2-cyano-1-(4-fluorophenyl)-N-(3-methyl-1,1-dioxidotetrahydrothiophen-3-yl)-1H-indole-6-carboxamide (Enantiomer A)]",0.448
